# Measurements as given in the supplement of paper PMC5412046.
# Structures can show the parent of a compound that is named as a salt.
# System: SB.msgc-1
# Assay: AC50 for growth inhibition (viability) (log10 M); higher = less potent
# Conditions: SB.msgc-1 (sporadic gastric cancer)
# Outline: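 Gastric cancer cells from hereditary or sporadic patients, 500 per 1536 well, were exposed to compound for 48 h over 11 threefold dilutions from a final 46 μM. CellTiter-Glo luminescence, read on a ViewLux, measured viability, which was normalised to DMSO. The log half-maximal activity concentration came from four-parameter fits, and only high-quality curve classes were kept.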
row,Compound,AC50 for growth inhibition (log10 M)
1,COCC1(CO)C(=O)C2CCN1CC2 (stereo not drawn) [APR-246],-4.88
2,CCOC(=O)N[C@@H]1CC[C@@H]2[C@@H](C1)C[C@H]1C(=O)O[C@H](C)[C@H]1[C@H]2/C=C/c1ccc(-c2cccc(F)c2)cn1 [Vorapaxar],-4.78
3,CN1CCN(c2cccc(Nc3nc4c(-c5ccc([S+](C)(=O)[O-])cc5)cccn4n3)c2)CC1,-4.78
4,CC1=C2N=C([NH]C2=CC(=C1)N3CCOCC3)\C4=C(NC[C@@H](O)C5=CC=CC(=C5)Cl)\C=C/NC4=O,-5.78
5,O=C(Nc1cccc(Br)c1)c1cccc([S+](=O)([O-])N2CCCCCC2)c1 [Ak-7],-4.73
6,CNC1[C@@H](O)C(O[C@@H]2C(O)C(O[C@H]3O[C@H]([C@@H](C)NC)CC[C@H]3N)[C@@H](N)C[C@H]2N)OC[C@]1(C)O (stereo partly drawn) [Gentamycin sulfate],-4.73
7,CCc1cccc(CC)c1NC(=O)N1Cc2[nH]nc(NC(=O)c3ccc(N4CCN(C)CC4)cc3)c2C1,-4.63
8,COc1cc(N2CCN(C)CC2)ccc1Nc1nc(N)c(C(=O)c2c(Cl)cccc2Cl)s1,-5.18
9,COc1cc([C@H]2Oc3cc([C@H]4Oc5cc(O)cc(O)c5C(=O)[C@@H]4O)ccc3O[C@@H]2CO)ccc1O [Silybin],-4.78
10,O=C(O)CCC1CCC(c2cc(F)ccc2F)([S+](=O)([O-])c2ccc(Cl)cc2)CC1 (stereo not drawn) [MK-0752],-4.98
11,O=c1[nH]c2ccccc2n1C1CCN(Cc2ccc(-c3nc4cc5nc[nH]c5cc4nc3-c3ccccc3)cc2)CC1 [AKT inhibitor VIII],-4.83
12,CCOC(=O)Nc1ccc(NCc2ccc(F)cc2)cc1N [Retigabine],-4.83
13,CNc1nc(-c2ccc3c(N)n[nH]c3c2)cc(N2C[C@@H](C(=O)NC3CCCCC3)CC[C@H]2C)n1,-4.68
14,Cc1ccnc(N[S+](=O)([O-])c2ccc(NC(=O)Nc3ccc([S+](=O)([O-])Nc4nccc(C)n4)cc3)cc2)n1,-4.68
15,CC/1=C(/C(CC(=O)N1)C2=CC=C(C=C2)C(F)(F)F)C(=O)NC3=C(F)C=C4[NH]N=CC4=C3 (stereo not drawn),-5.03
16,O=c1cc(O)c(Cl)c[nH]1 [Gimeracil],-4.68
17,CC1(C)CCC(C)(C)c2cc(NC(=O)c3ccc(C(=O)O)cc3)ccc21 [Tamibarotene],-5.38
18,O=C(Nc1ccc(OC(F)(F)F)cc1)c1sccc1NCc1ccnc2ccccc12 [OSI-930],-4.73
19,NC(=O)c1cccc(-c2cc(Nc3ccc(OC(F)(F)F)cc3)ncn2)c1 [GNF 2],-4.73
20,CC1=NN(c2ccc(C)c(C)c2)C(=O)/C1=N/Nc1cccc(-c2cccc(C(=O)O)c2)c1O [Eltrombopag olamine],-4.83
21,CN(C)C1=C(Br)C=C(C=C1)C\2NC3=C(\C4=C2C(=O)CC(C)(C)C4)C5=CC=CC=C5C=C3 (stereo not drawn) [GLS968],-5.23
22,N[C@@H](Cc1c[nH]c2ccc(O)cc12)C(=O)O [5-Hydroxytryptophan],-4.68
23,c1ccc(-c2nn3c(c2-c2ccnc4cc(OCCN5CCOCC5)ccc24)CCC3)nc1,-4.68
24,C[C@]\12CC[C@H](O)CC1=C/C[C@@H]3[C@@H]2CC[C@@]\4(C)[C@H]3C\C=C4C5=CN=CC=C5 [Abiraterone],-5.19

row,Compound,AC50 for growth inhibition (log10 M)
1,CC(C)CC(N(C)C)C1(c2ccc(Cl)cc2)CCC1 (stereo not drawn) [Sibutramine hydrochloride],-4.73
2,COc1ccc(C(=O)c2c(C)n(CCN3CCOCC3)c3cc(I)ccc23)cc1 [AM-630],-4.63
3,COc1ccc(OC)c(-c2nnc3ccc(-c4ccc(OC)c(O[C@@H]5CCOC5)c4)nn23)c1,-4.68
4,CCCCC[C@H](O)/C=C/[C@H]1[C@H](O)CC(=O)[C@@H]1C/C=C\CCCC(=O)O [Prostaglandin E2],-5.18
5,Cc1cc2c(cc1C1(c3ccc(C(=O)O)cn3)CC1)C(C)(C)CCC2(C)C,-4.73
6,CCC(C)N1\N=C/N(C1=O)C2=CC=C(C=C2)N3CCN(CC3)C4=CC=C(OC[C@H]5CO[C@@](C[N]6C=NC=N6)(O5)C7=CC=C(Cl)C=C7Cl)C=C4 (stereo partly drawn) [Itraconazole],-5.58
7,CN1CCN(Cc2ccc(NC(=O)Nc3ccc(Oc4cc(NC(=O)C5CC5)ncn4)cc3)cc2C(F)(F)F)CC1 [WS3],-5.93
8,Cc1ccc(-c2cc(C(F)(F)F)nn2-c2ccc([S+](N)(=O)[O-])cc2)cc1 [Celecoxib],-4.78
9,C=CC[C@@H]1/C=C(\C)C[C@H](C)C[C@H](OC)[C@H]2O[C@@](O)(C(=O)C(=O)N3CCCC[C@H]3C(=O)O[C@H](/C(C)=C/[C@@H]3CC[C@@H](O)[C@H](OC)C3)[C@H](C)[C@@H](O)CC1=O)[C@H](C)C[C@@H]2OC [FK-506],-5.18
10,C[C@H]1[C@H](O)O[C@@H]2O[C@@]3(C)CC[C@H]4[C@H](C)CC[C@@H]1[C@@]24OO3 [Artenimol],-5.68
11,O=C1Nc2ccc(I)cc2/C1=C/c1cc(Br)c(O)c(Br)c1 [GW-5074],-4.93
12,N#Cc1ccc(Oc2ccc3c(c2)COB3O)cc1 [AN2728],-4.73
13,COc1cc(-c2nn(C3CCC(N4CCN(C(C)=O)CC4)CC3)c3ncnc(N)c23)ccc1NC(=O)c1cc2ccccc2n1C (stereo not drawn),-5.28
14,C[C@H](Cc1ccc(O)c(O)c1)[C@@H](C)Cc1ccc(O)c(O)c1 [Masoprocol],-4.83
15,CCCCCCCCCCCC(CC1OC(=O)C1CCCCCC)OC(=O)C(CC(C)C)NC=O (stereo not drawn) [Orlistat],-4.78
16,c1cc(N[C@@H]2CCNC2)nc(-c2cnc3ccc(-c4cn[nH]c4)cn23)c1,-4.68
17,CCOc1ccc(Nc2nc(-c3c(C)nc4ccccn34)cs2)cc1 [JK 184],-6.43
18,COc1ccc(CC2NCCc3cc(OC)c(OC)cc32)cc1OC (stereo not drawn) [Tetrahydropapaverine],-4.78
19,Clc3cc4CCc1cccnc1C(=C2/CCN(CC2)C(=O)OCC)\c4cc3 [Loratadine],-4.73
20,COC1=CC=C(C=C1)C/2=C(OC3O[C@@H](C)[C@H](O)[C@@H](O)[C@H]3O)/C(=O)C4=C(O2)C(=C(OC5O[C@H](CO)[C@@H](O)[C@H](O)[C@H]5O)C=C4O)CC=C(C)C (stereo partly drawn) [Icariin],-4.93
21,CCOP(=O)(OCC)C(C)NC(=O)N(CCCl)N=O (stereo not drawn) [Fotemustine],-5.13
22,O=C(CCCN1CCN(c2ccc(F)cc2)CC1)NC1c2ccccc2CSc2ccccc21 (stereo not drawn) [Monatepil],-5.23
23,Cn1c(Nc2ccc(C(F)(F)F)cc2)nc2cc(Oc3ccnc(-c4nc(C(F)(F)F)c[nH]4)c3)ccc21 [CHIR-265],-6.68
24,O=C(/C=C/c1cccnc1)NCCCCC1CCN(C(=O)c2ccccc2)CC1 [Daporinad],-6.08
